Molecules are shown by their SMILES. Structures can show the parent of a compound that is named as a salt. Where two headings read alike, the source gives them in different places. Where a SMILES comes first, the peptide text is derived from it. [ ]: non-standard residue; d: D form. pGlu = O=C1CC[C@@H](C(=O)O)N1; Thz = O=C(O)[C@@H]1CSCN1

Experiment [1] deals with T1, SARS-CoV-2 PLpro (nsp3 1564–1878) (Severe acute respiratory syndrome coronavirus 2, UniProt P0DTD1). Nature of the experiment: biochemical. Set-up: FRET-quenched peptide (Pro3) cleavage by PLpro, 10 min pre-incubation, slope over 20 min, normalised to no-compound control. Particulars: read-out: % of control remaining.
The target of experiment [2] is T1, SARS-CoV-2 PLpro (nsp3 1564–1878). In words: biochemical. Set-up: FRET-quenched peptide (Pro3) cleavage by PLpro, 10 min pre-incubation, slope over 20 min, normalised to no-compound control. Particulars: read-out: % of control remaining. This is another data set of the same source.

For the compound `CCCCCCCCCCCCCC(=O)O[C@@H]1[C@@H](C)[C@@]2(O)[C@@H](C=C(CO)C[C@]3(O)C(=O)C(C)=C[C@@H]23)[C@@H]2C(C)(C)[C@]12OC(C)=O` [Phorbol 12-myristate 13-acetate], the remaining activity at 1.25 µM in experiment [1] (Well no.=1493, low concentration screen) was 101%; in experiment [1] (Well no.=3078, low concentration screen), 102%. Further, the remaining activity at 3.75 µM in experiment [2] (Well no.=1493, high concentration screen) stood at 97.5%; in experiment [2] (Well no.=3078, high concentration screen), 105%.
With `C[C@@H]1O[C@@H]1P(=O)(O)O` [Phosphomycin disodium], the remaining activity at 1.25 µM in experiment [1] (Well no.=1148, low concentration screen) came out at 96.5%. Moreover, the remaining activity at 3.75 µM in experiment [2] (Well no.=1148, high concentration screen) worked out at 93.1%.
As for `O=C(O)CP(=O)(O)O` [Phosphonoacetic acid], the remaining activity at 1.25 µM in experiment [1] (Well no.=1299, low concentration screen) amounted to 101%. Also, the remaining activity at 3.75 µM in experiment [2] (Well no.=1299, high concentration screen) stood at 103%.
Take `CC(C)C[C@H](NP(=O)(O)O[C@@H]1O[C@@H](C)[C@H](O)[C@@H](O)[C@H]1O)C(=O)N[C@@H](Cc1c[nH]c2ccccc12)C(=O)O` [Phosphoramidon disodium]: the remaining activity at 1.25 µM in experiment [1] (Well no.=1398, low concentration screen) is 99.4%. For the same compound, the remaining activity at 3.75 µM in experiment [2] (Well no.=1398, high concentration screen) came out at 100%.
With `NC(=O)c1ccccc1C(=O)N[C@@H](CCC(=O)O)C(=O)O` [Phthalamoyl-L-glutamic acid trisodium], in experiment [1] (Well no.=1409, low concentration screen), the remaining activity at 1.25 µM was 99.3%. In addition, the remaining activity at 3.75 µM in experiment [2] (Well no.=1409, high concentration screen) was determined as 101%.
Turning to `CC(=O)NS(=O)(=O)c1ccc(NC(=O)c2ccccc2C(=O)O)cc1` [Phthalylsulfacetamide], the remaining activity at 1.25 µM in experiment [1] (Well no.=7356, low concentration screen) is 105%. In addition, the remaining activity at 3.75 µM in experiment [2] (Well no.=7356, high concentration screen) was found to be 100%.
Take `O=C(O)c1ccccc1C(=O)Nc1ccc(S(=O)(=O)Nc2nccs2)cc1` [Phthalylsulfathiazole]: in experiment [1] (Well no.=7314, low concentration screen), the remaining activity at 1.25 µM came out at 97.8%. The remaining activity at 3.75 µM in experiment [2] (Well no.=7314, high concentration screen) was determined as 95.3%.
In the case of `CCCCCCCCCCCCCC[C@@H](O)[C@@H](O)[C@@H](N)CO` [Phytosphingosine], the remaining activity at 1.25 µM in experiment [1] (Well no.=3082, low concentration screen) came to 102%. In experiment [2] (Well no.=3082, high concentration screen), the remaining activity at 3.75 µM was found to be 103%.
As for `CCCCN1CCC(CNC(=O)c2c3n(c4ccccc24)CCCO3)CC1` [Piboserod], the remaining activity at 1.25 µM in experiment [1] (Well no.=7965, low concentration screen) worked out at 93.1%. Moreover, the remaining activity at 3.75 µM in experiment [2] (Well no.=7965, high concentration screen) stood at 93.6%.
As for `Oc1cc(O)cc(/C=C/c2ccc(O)c(O)c2)c1` [Piceatannol], the remaining activity at 1.25 µM is 98.3% in experiment [1] (Well no.=948, low concentration screen); 107% in experiment [1] (Well no.=3084, low concentration screen); 105% in experiment [1] (Well no.=3939, low concentration screen). The remaining activity at 3.75 µM in experiment [2] (Well no.=948, high concentration screen) is 92.7%; in experiment [2] (Well no.=3084, high concentration screen), 98.8%; in experiment [2] (Well no.=3939, high concentration screen), 102%.
With `COc1ccc(C(=O)NCc2cccnc2)cc1C(=O)NCc1cccnc1` [Picotamide], the remaining activity at 1.25 µM in experiment [1] (Well no.=1351, low concentration screen) worked out at 102%; in experiment [1] (Well no.=2202, low concentration screen), 88.9%. Further, the remaining activity at 3.75 µM in experiment [2] (Well no.=1351, high concentration screen) was 102%; in experiment [2] (Well no.=2202, high concentration screen), 90.3%.
With `COc1cc([C@@H]2c3cc4c(cc3[C@H](O)[C@H]3COC(=O)[C@@H]23)OCO4)cc(OC)c1OC` [Picropodophyllin], the remaining activity at 1.25 µM in experiment [1] (Well no.=3341, low concentration screen) is 95.7%. Further, the remaining activity at 3.75 µM in experiment [2] (Well no.=3341, high concentration screen) is 98.4%.
Turning to `C=C(C)[C@@H]1[C@H]2OC(=O)[C@@H]1[C@]1(O)C[C@H]3O[C@]34C(=O)O[C@H]2[C@]14C` [Picrotoxinin], the remaining activity at 1.25 µM in experiment [1] is 101%. Also, in experiment [2], the remaining activity at 3.75 µM amounted to 101%.
`O=C1CC[C@@H](C(=O)N2CSC[C@H]2C(=O)O)N1` [Pidotimod] ([pGlu]-[Thz]-OH): the remaining activity at 1.25 µM in experiment [1] (Well no.=7508, low concentration screen) was found to be 101%. For the same compound, the remaining activity at 3.75 µM came out at 105% in experiment [2] (Well no.=4933, high concentration screen) and 97.7% in experiment [2] (Well no.=7508, high concentration screen).
Regarding `CC[C@@H]1C(=O)OC[C@@H]1Cc1cncn1C` [Pilocarpine (Hydrochloride)], in experiment [1] (Well no.=7627, low concentration screen), the remaining activity at 1.25 µM is 99.7%. For the same compound, in experiment [2] (Well no.=7627, high concentration screen), the remaining activity at 3.75 µM came to 96.7%.
Turning to `CC[C@@H]1C(=O)OC[C@@H]1Cc1cncn1C` [Pilocarpine nitrate], the remaining activity at 1.25 µM in experiment [1] (Well no.=1150, low concentration screen) turned out to be 96.8%. Moreover, the remaining activity at 3.75 µM in experiment [2] (Well no.=1150, high concentration screen) amounted to 97%.
For the compound `CC[C@@H]1C(=O)OC[C@@H]1Cc1cncn1C` [Pilocarpine.HCl], the remaining activity at 1.25 µM in experiment [1] (Well no.=1793, low concentration screen) was found to be 98.6%; in experiment [1] (Well no.=3729, low concentration screen), 101%. Moreover, the remaining activity at 3.75 µM in experiment [2] (Well no.=1793, high concentration screen) is 98.6%; in experiment [2] (Well no.=3729, high concentration screen), 105%.
For the compound `C[C@@H]1C/C=C/C=C/C=C/C=C/[C@H](O[C@@H]2O[C@H](C)[C@@H](O)[C@H](N)[C@@H]2O)C[C@@H]2O[C@](O)(C[C@@H](O)C[C@H]3O[C@@H]3/C=C/C(=O)O1)C[C@H](O)[C@H]2C(=O)O` [Pimaricin], the remaining activity at 1.25 µM in experiment [1] (Well no.=3703, low concentration screen) amounted to 96.5%. In addition, the remaining activity at 3.75 µM in experiment [2] (Well no.=3703, high concentration screen) came out at 102%.
Take `CC(C)COc1ccc(CNC(=O)N(Cc2ccc(F)cc2)C2CCN(C)CC2)cc1` [Pimavanserin tartrate]: in experiment [1] (Well no.=6989, low concentration screen), the remaining activity at 1.25 µM came out at 103%. The remaining activity at 3.75 µM in experiment [2] (Well no.=6989, high concentration screen) is 102%.
For `CC(C)COc1ccc(CNC(=O)N(Cc2ccc(F)cc2)C2CCN(C)CC2)cc1` [Pimavanserin], the remaining activity at 1.25 µM in experiment [1] (Well no.=6521, low concentration screen) was 95%. Further, the remaining activity at 3.75 µM in experiment [2] (Well no.=6521, high concentration screen) worked out at 95.9%.
For the compound `CC[C@@H]1/C=C(\C)C[C@H](C)C[C@H](OC)[C@H]2O[C@@](O)(C(=O)C(=O)N3CCCC[C@H]3C(=O)O[C@H](/C(C)=C/[C@@H]3CC[C@H](Cl)[C@H](OC)C3)[C@H](C)[C@@H](O)CC1=O)[C@H](C)C[C@@H]2OC` [Pimecrolimus], the remaining activity at 1.25 µM in experiment [1] (Well no.=8178, low concentration screen) was 93.5%. Besides, the remaining activity at 3.75 µM in experiment [2] (Well no.=8178, high concentration screen) amounted to 91.3%.
In the case of `Cc1ccc(NC(=O)CCCCCC(=O)Nc2ccccc2N)cc1` [Pimelic Diphenylamide 106 (analog)], the remaining activity at 1.25 µM in experiment [1] (Well no.=8230, low concentration screen) was determined as 104%. In addition, the remaining activity at 3.75 µM in experiment [2] (Well no.=8230, high concentration screen) worked out at 102%.
On to `Cc1ccc(NC(=O)CCCCCC(=O)Nc2ccccc2N)cc1` [Pimelic Diphenylamide 106], for which, in experiment [1] (Well no.=5991, low concentration screen), the remaining activity at 1.25 µM worked out at 101%. Also, in experiment [2] (Well no.=5991, high concentration screen), the remaining activity at 3.75 µM was 99.4%.
In the case of `O=C(O)CCCCCC(=O)O` [Pimelic acid], the remaining activity at 1.25 µM in experiment [1] (Well no.=7115, low concentration screen) was determined as 96.9%. Also, the remaining activity at 3.75 µM in experiment [2] (Well no.=7115, high concentration screen) came to 99.2%.
In the case of `COc1ccc(-c2nc3cc(C4=NNC(=O)CC4C)ccc3[nH]2)cc1` (stereo not drawn) [Pimobendan (Vetmedin)], the remaining activity at 1.25 µM in experiment [1] (Well no.=4957, low concentration screen) worked out at 100%. Besides, the remaining activity at 3.75 µM in experiment [2] (Well no.=4957, high concentration screen) stood at 103%.
With `O=c1[nH]c2ccccc2n1C1CCN(CCCC(c2ccc(F)cc2)c2ccc(F)cc2)CC1` [Pimozide], the remaining activity at 1.25 µM is 93.3% in experiment [1] (Well no.=1094, low concentration screen) and 99.2% in experiment [1] (Well no.=1595, low concentration screen). The remaining activity at 3.75 µM in experiment [2] (Well no.=1094, high concentration screen) came out at 95%; in experiment [2] (Well no.=1595, high concentration screen), 95.7%.
Regarding `CC(N/C(=N\C#N)Nc1ccncc1)C(C)(C)C` (stereo not drawn) [Pinacidil], the remaining activity at 1.25 µM in experiment [1] (Well no.=1503, low concentration screen) came out at 98.1%; in experiment [1] (Well no.=1603, low concentration screen) it was 103%. The remaining activity at 3.75 µM in experiment [2] (Well no.=1503, high concentration screen) worked out at 97.2%; in experiment [2] (Well no.=1603, high concentration screen), 98.9%.

Values taken from PMC8286840, “Identifying SARS-CoV-2 antiviral compounds by screening for small molecule inhibitors of Nsp3 papain-like protease” (Biochemical Journal, 2021).
